Results reported in publication PMC10041525, “New Dual Inhibitors of Bacterial Topoisomerases with Broad-Spectrum Antibacterial Activity and In Vivo Efficacy against Vancomycin-Intermediate Staphylococcus aureus” (Journal of Medicinal Chemistry, 2023).
Like-named read-outs stand apart in the source and are kept apart here.

Columns and labels:
S. aureus ATCC 29213 = assay: MIC broth microdilution (CLSI); assay type: cell-based
Outline: (§1)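 Cation-adjusted Mueller Hinton broth 2 microdilution, 5 × 10^4 cells per well in 100 μL, three parallel replicates, plates bagged to limit evaporation; growth read as OD600 after incubation.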

[1] = test system: S. aureus (MRSA) ATCC 43300; assay: MIC broth microdilution (CLSI); assay type: cell-based
Outline: (§2)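 Using standard CLSI methodology, triplicate wells seeded at 5 × 10^4 cells in 100 μL cation-adjusted MHBII are incubated 18 h at 37 °C. The MIC corresponds to the drug concentration inhibiting culture growth as judged by OD600.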

K. pneumoniae ATCC 10031 = assay: MIC broth microdilution (CLSI); assay type: cell-based; conditions: Klebsiella pneumoniae, ATCC10031
Outline: as §2

[2] = test system: Enterobacter cloacae spp. cloacae ATCC 13047; assay: MIC broth microdilution (CLSI); assay type: cell-based; conditions: Enterobacter cloacae, ATCC13047
Outline: as §2

P. aeruginosa ATCC 27853 = assay: MIC broth microdilution (CLSI); assay type: cell-based; conditions: Pseudomonas aeruginosa, ATCC27853
Outline: as §2

[3] = test system: S. aureus (VISA) ATCC 700699; assay: MIC broth microdilution (CLSI); assay type: cell-based
Outline: as §2

E. coli ATCC 25922 = assay: MIC broth microdilution (CLSI); assay type: cell-based; conditions: Escherichia coli, ATCC25922
Outline: as §2

E. faecium ATCC 700221 = assay: MIC broth microdilution (CLSI); assay type: cell-based
[4] = test system: Enterococcus faecalis ATCC 29212; assay: MIC broth microdilution (CLSI); assay type: cell-based, E. faecalis; conditions: Enterococcus faecalis, ATCC29212
A. baumannii ATCC 17978 = assay: MIC broth microdilution (CLSI); assay type: cell-based; conditions: Acinetobacter baumannii, ATCC17978
Outline: as §1

topo IV from E. coli = biological target: T1, topo IV from E. coli (Escherichia coli, UniProt P20083); assay: relaxation HTS plate assay; assay type: biochemical
T1 construct: purchased Inspiralis
T1 sequence (P0AFI2 whole entry): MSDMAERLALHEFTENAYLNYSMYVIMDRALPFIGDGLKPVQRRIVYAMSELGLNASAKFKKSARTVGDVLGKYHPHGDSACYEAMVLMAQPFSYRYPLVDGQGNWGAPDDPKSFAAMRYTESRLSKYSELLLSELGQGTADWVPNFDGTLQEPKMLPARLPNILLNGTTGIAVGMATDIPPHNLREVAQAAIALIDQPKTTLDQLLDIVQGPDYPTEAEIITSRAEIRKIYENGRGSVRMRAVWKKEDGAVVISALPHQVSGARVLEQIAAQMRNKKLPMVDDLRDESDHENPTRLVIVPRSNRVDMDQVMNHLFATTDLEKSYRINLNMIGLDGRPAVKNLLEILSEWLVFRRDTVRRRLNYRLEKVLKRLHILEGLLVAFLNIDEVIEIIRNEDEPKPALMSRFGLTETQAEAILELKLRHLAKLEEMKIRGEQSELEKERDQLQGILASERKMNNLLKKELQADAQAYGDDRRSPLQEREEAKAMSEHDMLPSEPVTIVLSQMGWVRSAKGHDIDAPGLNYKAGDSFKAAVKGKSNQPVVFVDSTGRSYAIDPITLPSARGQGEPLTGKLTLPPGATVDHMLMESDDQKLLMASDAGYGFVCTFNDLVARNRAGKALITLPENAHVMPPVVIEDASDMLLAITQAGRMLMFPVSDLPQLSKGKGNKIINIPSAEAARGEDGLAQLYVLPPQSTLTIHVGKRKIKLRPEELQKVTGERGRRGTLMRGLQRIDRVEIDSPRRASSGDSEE
T1 sequence (P20083 whole entry): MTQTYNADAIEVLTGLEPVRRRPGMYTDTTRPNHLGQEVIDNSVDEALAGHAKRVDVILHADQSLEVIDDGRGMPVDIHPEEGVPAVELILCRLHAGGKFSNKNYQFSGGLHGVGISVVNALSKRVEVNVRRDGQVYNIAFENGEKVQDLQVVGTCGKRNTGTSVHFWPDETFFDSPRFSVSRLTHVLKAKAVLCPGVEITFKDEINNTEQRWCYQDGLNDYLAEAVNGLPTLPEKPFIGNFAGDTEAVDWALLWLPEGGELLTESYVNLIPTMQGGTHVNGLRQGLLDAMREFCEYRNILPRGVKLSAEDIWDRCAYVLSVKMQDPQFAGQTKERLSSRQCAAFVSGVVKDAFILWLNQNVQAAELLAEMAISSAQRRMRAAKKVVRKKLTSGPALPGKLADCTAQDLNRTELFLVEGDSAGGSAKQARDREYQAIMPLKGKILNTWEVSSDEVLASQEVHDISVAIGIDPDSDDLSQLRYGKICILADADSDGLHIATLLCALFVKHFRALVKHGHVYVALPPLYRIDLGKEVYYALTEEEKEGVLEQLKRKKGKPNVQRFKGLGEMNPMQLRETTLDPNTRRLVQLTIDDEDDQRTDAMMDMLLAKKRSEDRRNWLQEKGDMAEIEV
Outline: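 E. coli gyrase tested by supercoiling and topo IV by relaxation in high-throughput plate format. IC50 from seven inhibitor concentrations; mean of three independent measurements.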

[5] = Staphylococcus aureus, ATCC29213
[6] = Staphylococcus aureus, read-out: MIC [µg/mL](S. aureus MRSA ATCC4330)
[7] = Enterococcus faecium, ATCC700221
[8] = Staphylococcus aureus, ATCC29213; read-out: MIC
[9] = Staphylococcus aureus, ATCC29213; read-out: MIC [µg/mL](S. aureus ATCC 29213)
[10] = read-out: MIC [µg/mL] (A. baumannii ATCC 17978)
[11] = Staphylococcus aureus; read-out: MIC
[12] = Staphylococcus aureus; read-out: MIC [µg/mL](S. aureus MRSA ATCC4330)
[13] = Staphylococcus aureus, read-out: MIC
[14] = Enterococcus faecium, ATCC700221, read-out: MIC

Structure (SMILES)	MIC (S. aureus ATCC 29213; [8])	MIC (S. aureus ATCC 29213; [9])	MIC (A. baumannii ATCC 17978; read-out: MIC)	MIC (A. baumannii ATCC 17978; [10])	IC50 (topo IV from E. coli; read-out: IC50)	MIC [1, 11]	MIC [1, 12]	MIC (K. pneumoniae ATCC 10031; read-out: MIC)	MIC ([2]; read-out: MIC)	MIC (P. aeruginosa ATCC 27853; read-out: MIC)	MIC [3, 13]	MIC (E. coli ATCC 25922; read-out: MIC)	MIC (E. faecium ATCC 700221; [14])	MIC ([4]; read-out: MIC)	other results
Cc1[nH]c(C(=O)Nc2nc3c(N4CCOCC4)cc(C(=O)O)cc3s2)c(Cl)c1Cl [7a, 2-(3,4-Dichloro-5-methyl-1H-pyrrole-2-carboxamido)-4-morpholinobenzo[d]thiazole-6-carboxylic Acid]															MIC (S. aureus ATCC 29213; [5]): 0.25 µg/mL; MIC (S. aureus ATCC 29213; Staphylococcus aureus, ATCC29213, read-out: MIC [µg/mL](S. aureus ATCC 29213)): 0.25 µg/mL; MIC ([1]; Staphylococcus aureus): 0.0625 µg/mL; MIC [1, 6]: 0.25 µg/mL; MIC (K. pneumoniae ATCC 10031): 0.5 µg/mL; MIC [2]: > 64 µg/mL; MIC (P. aeruginosa ATCC 27853): 16 µg/mL; MIC [3]: <0.03125 µg/mL; MIC ([3]; Staphylococcus aureus): < 0.0312 µg/mL; MIC (E. coli ATCC 25922): 8 µg/mL; MIC (E. faecium ATCC 700221; [7]): < 0.0312 µg/mL; MIC [4]: < 0.0312 µg/mL
Cc1[nH]c(C(=O)Nc2nc3c(N4CCOCC4C)cc(C(=O)O)cc3s2)c(Cl)c1Cl (stereo not drawn) [7b, 2-(3,4-Dichloro-5-methyl-1H-pyrrole-2-carboxamido)-4-(3-methylmorpholino)benzo[d]thiazole-6-carboxylic Acid]	0.125 µg/mL	0.125 µg/mL	4 µg/mL	4 µg/mL	78 ± 4 nM	< 0.0312 µg/mL	< 0.0312 µg/mL	2 µg/mL	32 µg/mL	8 µg/mL	< 0.0312 µg/mL	8 µg/mL	< 0.0312 µg/mL	< 0.0312 µg/mL	
Cc1[nH]c(C(=O)Nc2nc3c(N4CCOC[C@H]4C)cc(C(=O)O)cc3s2)c(Cl)c1Cl [7c, (R)-2-(3,4-Dichloro-5-methyl-1H-pyrrole-2-carboxamido)-4-(3-methylmorpholino)benzo[d]thiazole-6-carboxylic Acid]	0.0625 µg/mL	0.0625 µg/mL	8 µg/mL	8 µg/mL	60 ± 36 nM	0.125 µg/mL	0.125 µg/mL	1 µg/mL	> 64 µg/mL	8 µg/mL	0.0625 µg/mL	8 µg/mL	< 0.0312 µg/mL	< 0.0312 µg/mL	
Cc1[nH]c(C(=O)Nc2nc3c(N4CCOC[C@@H]4C)cc(C(=O)O)cc3s2)c(Cl)c1Cl [7d, (S)-2-(3,4-Dichloro-5-methyl-1H-pyrrole-2-carboxamido)-4-(3-methylmorpholino)benzo[d]thiazole-6-carboxylic Acid]	0.125 µg/mL	0.125 µg/mL	8 µg/mL	8 µg/mL	95 ± 4 nM	0.125 µg/mL	0.125 µg/mL	2 µg/mL	> 64 µg/mL	8 µg/mL	0.0625 µg/mL	8 µg/mL	< 0.0312 µg/mL	< 0.0312 µg/mL	
Cc1[nH]c(C(=O)Nc2nc3c(N4CCOC(C)C4)cc(C(=O)O)cc3s2)c(Cl)c1Cl (stereo not drawn) [7e, 2-(3,4-Dichloro-5-methyl-1H-pyrrole-2-carboxamido)-4-(2-methylmorpholino)benzo[d]thiazole-6-carboxylic Acid]	0.0625 µg/mL	0.0625 µg/mL	8 µg/mL	8 µg/mL	91 ± 3 nM	0.0625 µg/mL	0.0625 µg/mL	2 µg/mL	> 64 µg/mL	16 µg/mL	< 0.0312 µg/mL	8 µg/mL	< 0.0312 µg/mL	< 0.0312 µg/mL	
Cc1[nH]c(C(=O)Nc2nc3c(N4CC(C)OC(C)C4)cc(C(=O)O)cc3s2)c(Cl)c1Cl (stereo not drawn) [7f, 2-(3,4-Dichloro-5-methyl-1H-pyrrole-2-carboxamido)-4-(2,6-dimethylmorpholino)benzo[d]thiazole-6-carboxylic Acid]	< 0.0312 µg/mL	< 0.0312 µg/mL	1 µg/mL	1 µg/mL	82 ± 29 nM	< 0.0312 µg/mL	< 0.0312 µg/mL	8 µg/mL	> 64 µg/mL	8 µg/mL	< 0.0312 µg/mL	8 µg/mL	< 0.0312 µg/mL	< 0.0312 µg/mL	
Cc1[nH]c(C(=O)Nc2nc3c(N4C[C@H]5CC[C@@H](C4)O5)cc(C(=O)O)cc3s2)c(Cl)c1Cl [7g, 4-((1R,5S)-8-Oxa-3-azabicyclo[3.2.1]octan-3-yl)-2-(3,4-dichloro-5-methyl-1H-pyrrole-2-carboxamido)benzo[d]thiazole-6-carboxylic Acid]	< 0.0312 µg/mL	< 0.0312 µg/mL	1 µg/mL	1 µg/mL	16 ± 8 nM	< 0.0312 µg/mL	< 0.0312 µg/mL	2 µg/mL	16 µg/mL	2 µg/mL	< 0.0312 µg/mL	2 µg/mL	< 0.0312 µg/mL	< 0.0312 µg/mL	
Cc1[nH]c(C(=O)Nc2nc3c(N4[C@@H]5CC[C@H]4COC5)cc(C(=O)O)cc3s2)c(Cl)c1Cl [7h, 4-((1R,5S)-3-Oxa-8-azabicyclo[3.2.1]octan-8-yl)-2-(3,4-dichloro-5-methyl-1H-pyrrole-2-carboxamido)benzo[d]thiazole-6-carboxylic Acid]	< 0.0312 µg/mL	< 0.0312 µg/mL	2 µg/mL	2 µg/mL		< 0.0312 µg/mL	< 0.0312 µg/mL	2 µg/mL	16 µg/mL	4 µg/mL	0.0625 µg/mL	4 µg/mL	< 0.0312 µg/mL	< 0.0312 µg/mL	
Cc1[nH]c(C(=O)Nc2nc3c(N4CCOC(C(F)(F)F)C4)cc(C(=O)O)cc3s2)c(Cl)c1Cl (stereo not drawn) [7i, 2-(3,4-Dichloro-5-methyl-1H-pyrrole-2-carboxamido)-4-(2-(trifluoromethyl)morpholino)benzo[d]thiazole-6-carboxylic Acid]															MIC (S. aureus ATCC 29213; [5]): < 0.0312 µg/mL; MIC (A. baumannii ATCC 17978): 4 µg/mL; IC50 (topo IV from E. coli; IC50): 63 ± 1 nM; MIC ([1]; Staphylococcus aureus): < 0.0312 µg/mL; MIC [1, 6]: < 0.0312 µg/mL; MIC (K. pneumoniae ATCC 10031): 4 µg/mL; MIC [2]: > 64 µg/mL; MIC (P. aeruginosa ATCC 27853): 4 µg/mL; MIC ([3]; Staphylococcus aureus): < 0.0312 µg/mL; MIC (E. coli ATCC 25922): 16 µg/mL; MIC (E. faecium ATCC 700221; [7]): < 0.0312 µg/mL; MIC [4]: < 0.0312 µg/mL
Cc1[nH]c(C(=O)Nc2nc3c(N4CCOCC4)cc(C(=O)O)cc3s2)cc1F [16b, 2-(4-Fluoro-5-methyl-1H-pyrrole-2-carboxamido)-4-morpholinobenzo[d]thiazole-6-carboxylic Acid]	64 µg/mL	64 µg/mL		> 64 µg/mL	120 nM	32 µg/mL	32 µg/mL				8 µg/mL	> 64 µg/mL	2 µg/mL	16 µg/mL	MIC (E. faecium ATCC 700221): 2 µg/mL
